Measurements reported in patent US10932466B2, “Fungicidal compositions” (SYNGENTA PARTICIPATIONS AG, priority 2016, dated 2021).
Where two headings read alike, the source gives them in different places.

Key:
Format in all cases: cell-based
[1] = test system: Venturia inaequalis; test: Venturia inaequalis (apple scab) growth inhibition in PDB, 96-well microtiter plate, photometric after 7 days; conditions: for inhibition at 0.0016 ppm: 1.001 0.0016 ppm alone; for inhibition at 0.0031 ppm: 1.001 0.0031 ppm alone
Procedure: (§1) IV) Venturia inaeaualis (Apple Scab): Conidia of the fungus from cryogenic storage were directly mixed into nutrient broth (PDB potato dextrose broth). After placing a (DMSO) solution of the test compounds into a microtiter plate (96-well format), the nutrient broth containing the fungal spores was added. The test plates were incubated at 24 C and the inhibition of growth was determined photometrically after 7 days.

[2] = test system: Botrytis cinerea; test: Botrytis cinerea (gray mould) growth inhibition in PDB, 96-well microtiter plate, photometric after 72 hrs; conditions: for inhibition at 0.0063 ppm: 1.001 0.0063 ppm alone
Procedure: as §1, with “V) Botrytis cinerea (Gray Mould):” for “IV) Venturia inaeaualis (Apple Scab):”, “72 hrs.” for “7 days.”

[3] = test system: Rhizoctonia solani; test: Rhizoctonia solani (Thanatephorus cucumeris) growth inhibition in PDB, 96-well microtiter plate, photometric and visual after 3-4 days; conditions: for inhibition at 0.0063 ppm: 1.001 0.0063 ppm alone; for inhibition at 0.0125 ppm: 1.001 0.0125 ppm alone; for inhibition at 0.025 ppm: 1.001 0.0250 ppm alone; for inhibition at 0.05 ppm: 1.001 0.0500 ppm alone; for inhibition at 0.1 ppm: 1.001 0.1000 ppm alone
Procedure: VI) Rhizoctonia solani (Thanatephorus cucumeris) Mycelial fragments of a newly grown liquid culture of the fungus were directly mixed into nutrient broth (PDB potato dextrose broth). After placing a (DMSO) solution of the test compounds into a microtiter plate (96-well format), the nutrient broth containing the fungal material was added. The test plates were incubated at 24° C. and the inhibition of growth was determined photometrically and visually 3-4 days after application.

[4] = test system: Septoria tritici; test: Septoria tritici (leaf blotch) growth inhibition in PDB, 96-well microtiter plate, photometric after 72 hrs; conditions: Zymoseptoria tritici; for inhibition at 0.0008 ppm: 1.001 0.0008 ppm alone
Procedure: as §1, with “I) Septoria tritici (Leaf Blotch):” for “IV) Venturia inaeaualis (Apple Scab):”, “72 hrs.” for “7 days.”

[5] = test system: Mycosphaerella arachidis, syn. Cercospora arachidicola; test: Mycosphaerella arachidis (peanut brown leaf spot) growth inhibition in PDB, 96-well microtiter plate, photometric after 5-6 days
Procedure: as §1, with “II) Mycosphaerella arachidis, syn. Cercospora arachidicola (Peanut Brown Leaf Soot):” for “IV) Venturia inaeaualis (Apple Scab):”, “approximately 5-6” for “7”

[6] = test system: Alternaria solani; test: Alternaria solani (early blight tomato/potato) growth inhibition in PDB, 96-well microtiter plate, photometric after 48 hrs; conditions: for Compound 1.001 inhibition: 1.001 0.0000 ppm, Table 11; for inhibition at 0.0008 ppm: 1.001 0.0008 ppm alone
Procedure: III) Altemaria solani (Early Blight Tomato/Potato):
as §1, with “Conidia” for “IV) Venturia inaeaualis (Apple Scab): Conidia”, “48 hrs.” for “7 days.”

[7] = Table 6, read-out: Compound 1.001 inhibition
[8] = Table 12, read-out: Compound 1.001 inhibition
[9] = Table 8, read-out: Compound 1.001 inhibition
[10] = Table 14, read-out: Compound 1.001 inhibition

Question: For `Cc1nnc(C#N)c(-c2c(F)cccc2F)c1-c1ccccc1` [(IId), 4-(2,6-difluorophenyl)-6-methyl-5-phenyl-pyridazine-3-carbonitrile], which inhibition at 0.0156 ppm ([1]; (IId) 0.0156 ppm alone, Table 12, read-out: (IId) Inhibition) is on record?
Answer: 0%

Question: And the inhibition at 0.0313 ppm ([1]; (IId) 0.0313 ppm alone, Table 12, read-out: (IId) Inhibition)?
Answer: 15%

Question: And the inhibition at 0.0625 ppm ([1]; (IId) 0.0625 ppm alone, Table 12)?
Answer: 0%

Question: What about the inhibition at 0.0313 ppm ([2]; (IId) 0.0313 ppm alone, Table 13, read-out: (IId) Inhibition) of the same compound?
Answer: 0%

Question: And the inhibition at 0.0625 ppm ([2]; (IId) 0.0625 ppm alone, Table 13)?
Answer: 0%

Question: And the inhibition at 0.5 ppm ([3]; (IId) 0.5000 ppm alone, Table 14)?
Answer: 31%

Question: What about the inhibition at 0.0313 ppm ([4]; (IId) 0.0313 ppm alone, Table 9) of the same compound?
Answer: 3%

Question: What about the inhibition at 0.0625 ppm ([4]; (IId) 0.0625 ppm alone, Table 9) of the same compound?
Answer: 8%

Question: What about the inhibition at 0.0039 ppm ([5]; (IId) 0.0039 ppm alone, Table 10) of the same compound?
Answer: 5%

Question: What about the inhibition at 0.0313 ppm ([5]; (IId) 0.0313 ppm alone, Table 10) of the same compound?
Answer: 5%

Question: For `Cc1nnc(Cl)c(-c2c(F)cccc2F)c1-c1ccccc1` [(IIc), 4-(2,6-difluorophenyl)-3-chloro-6-methyl-5-phenyl-pyridazine], which inhibition at 0.0078 ppm ([1]; (IIc) 0.0078 ppm alone, Table 6) is on record?
Answer: 0%

Question: What about the inhibition at 0.0156 ppm ([1]; (IIc) 0.0156 ppm alone, Table 6, read-out: (IIc) Inhibition) of the same compound?
Answer: 6%

Question: And the inhibition at 0.0313 ppm ([1]; (IIc) 0.0313 ppm alone, Table 6, read-out: (IIc) Inhibition)?
Answer: 0%

Question: And the inhibition at 0.0156 ppm ([2]; (IIc) 0.0156 ppm alone, Table 7)?
Answer: 5%

Question: And the inhibition at 0.0313 ppm ([2]; (IIc) 0.0313 ppm alone, Table 7, read-out: (IIc) Inhibition)?
Answer: 4%

Question: And the inhibition at 0.0313 ppm ([3]; (IIc) 0.0313 ppm alone, Table 8)?
Answer: 5%

Question: And the inhibition at 0.0625 ppm ([3]; (IIc) 0.0625 ppm alone, Table 8)?
Answer: 31%

Question: What about the inhibition at 0.125 ppm ([3]; (IIc) 0.1250 ppm alone, Table 8) of the same compound?
Answer: 85%

Question: And the inhibition at 0.25 ppm ([3]; (IIc) 0.2500 ppm alone, Table 8)?
Answer: 88%

Question: What about the inhibition at 0.0156 ppm ([4]; (IIc) 0.0156 ppm alone, Table 4) of the same compound?
Answer: 1%

Question: And the inhibition at 0.002 ppm ([6]; Alternaria solani, (IIc) 0.0020 ppm alone, Table 5)?
Answer: 0%

Question: `CON(C(=O)c1cn(C)nc1C(F)F)C(C)Cc1c(Cl)cc(Cl)cc1Cl` (stereo not drawn) [Compound 1.001, 3-(difluoromethyl)-N-methoxy-1-methyl-N-[1-methyl-2-(2,4,6-trichlorophenyl)ethyl]pyrazole-4-carboxamide] was tested. Which inhibition at 0.0016 ppm [1, 7] did it give?
Answer: 62%

Question: What about the inhibition at 0.0016 ppm [1, 8] of the same compound?
Answer: 50%

Question: What about the inhibition at 0.0031 ppm [1, 7] of the same compound?
Answer: 84%

Question: And the inhibition at 0.0031 ppm [1, 8]?
Answer: 81%

Question: What about the inhibition at 0.0063 ppm ([2]; Table 7, read-out: Compound 1.001 inhibition) of the same compound?
Answer: 30%

Question: What about the inhibition at 0.0063 ppm ([2]; Table 13, read-out: Compound 1.001 inhibition) of the same compound?
Answer: 34%

Question: What about the inhibition at 0.0031 ppm ([3]; 1.001 0.0031 ppm alone, Table 8, read-out: Compound 1.001 inhibition) of the same compound?
Answer: 13%

Question: And the inhibition at 0.0063 ppm [3, 9]?
Answer: 16%

Question: What about the inhibition at 0.0063 ppm [3, 10] of the same compound?
Answer: 0%

Question: What about the inhibition at 0.0125 ppm [3, 9] of the same compound?
Answer: 0%

Question: What about the inhibition at 0.0125 ppm [3, 10] of the same compound?
Answer: 0%

Question: And the inhibition at 0.025 ppm [3, 9]?
Answer: 0%

Question: What about the inhibition at 0.025 ppm [3, 10] of the same compound?
Answer: 9%

Question: What about the inhibition at 0.05 ppm [3, 9] of the same compound?
Answer: 15%

Question: What about the inhibition at 0.05 ppm [3, 10] of the same compound?
Answer: 0%

Question: And the inhibition at 0.1 ppm [3, 9]?
Answer: 0%

Question: And the inhibition at 0.1 ppm [3, 10]?
Answer: 0%

Question: What about the inhibition at 0.0008 ppm ([4]; Table 4, read-out: Compound 1.001 inhibition) of the same compound?
Answer: 49%

Question: And the inhibition at 0.0008 ppm ([4]; Table 9, read-out: Compound 1.001 inhibition)?
Answer: 45%

Question: And the inhibition at 0.0016 ppm ([4]; 1.001 0.0016 ppm alone, Table 9, read-out: Compound 1.001 inhibition)?
Answer: 81%

Question: And the “Compound 1.001 inhibition” value ([6]; (IId) 0.0039 ppm)?
Answer: 9%

Question: And the “Compound 1.001 inhibition” value ([6]; (IId) 0.0078 ppm)?
Answer: 6%

Question: And the “Compound 1.001 inhibition” value ([6]; (IId) 0.0156 ppm)?
Answer: 10%

Question: And the “Compound 1.001 inhibition” value ([6]; (IId) 0.0625 ppm)?
Answer: 6%

Question: What about the “Compound 1.001 inhibition” value ([6]; (IId) 0.1250 ppm) of the same compound?
Answer: 0%

Question: And the inhibition at 0.0004 ppm ([6]; Alternaria solani, 1.001 0.0004 ppm alone, Table 11, read-out: Compound 1.001 inhibition)?
Answer: 26%

Question: And the inhibition at 0.0008 ppm ([6]; Alternaria solani, Table 5, read-out: Compound 1.001 inhibition)?
Answer: 23%

Question: What about the inhibition at 0.0008 ppm ([6]; Alternaria solani, Table 11, read-out: Compound 1.001 inhibition) of the same compound?
Answer: 34%

Question: And the inhibition at 0.0016 ppm ([6]; Alternaria solani, 1.001 0.0016 ppm alone, Table 11, read-out: Compound 1.001 inhibition)?
Answer: 60%

Question: And the inhibition at 0.0004 ppm ([5]; 1.001 0.0004 ppm alone, Table 10, read-out: Compound 1.001 inhibition)?
Answer: 47%
